Results published in PMC5595280, “Cytotoxicity and anti-tumor effects of new ruthenium complexes on triple negative breast cancer cells” (PLoS ONE, 2017).

System: Caspase-3, Caspase-9 and Bcl-2 protein levels in MDA-MB-231 cells
Assay: Western blotting of apoptosis related proteins
Type: cell-based, human
Details: even at 2.5 μM, 6 h
Experimental: MDA-MB-231 cells (1.0 x 10^6/plate) were incubated for 6 h with (2.5, 5 and 10μM) or without (control) the complex (4) in Petri dishes (6 cm) at 37°C in a humidified incubator with 5% CO2. After incubation, cells were lysed using RIPA buffer (150 mM NaCl; 50 mM Tris-HCl pH 7.4; 50 mM NaF; 2 mM EDTA; 1.0% NP-40; 0.5 mM Na-deoxycholate; 0.1% SDS, pH 8.0) and the content was transferred to a 1.5 mL microtube. Protein concentrations of supernatants were determined using DC Protein Assay kit (Bio-Rad). […] Beta-actin was used as endogenous control. Substrate development was performed using SuperSignal West Dura Extended Substrate reagent (Thermo Scientific). Specific bands were visualized with ChemiDoc MP imager (BioRad Laboratories) and quantified with Image J software, normalized to β-actin.

CC(=O)[O-].F[P-](F)(F)(F)(F)F.[Ru+2].c1ccc(-c2ccccn2)nc1.c1ccc(P(CCCCP(c2ccccc2)c2ccccc2)c2ccccc2)cc1 [Complex (4), [Ru(CH3CO2)(dppb)(bipy)]PF6]
cleaved Caspase-3 protein levels: increased
cleaved Caspase-9 protein levels: increased
